According to patent publication US20140050779A1, “[…]-2 INHIBITORS AND USES THEREOF” (SINGAPORE HEALTH SERVICES PTE. LTD., priority 2011, published 2014):

Key:
hM5 = target: T1, hM5 (Homo sapiens, UniProt P08912); test: himbacine binding to cloned muscarinic receptor subtypes; conditions: cloned receptor subtype; data not shown
T1 sequence (P08912 1-532): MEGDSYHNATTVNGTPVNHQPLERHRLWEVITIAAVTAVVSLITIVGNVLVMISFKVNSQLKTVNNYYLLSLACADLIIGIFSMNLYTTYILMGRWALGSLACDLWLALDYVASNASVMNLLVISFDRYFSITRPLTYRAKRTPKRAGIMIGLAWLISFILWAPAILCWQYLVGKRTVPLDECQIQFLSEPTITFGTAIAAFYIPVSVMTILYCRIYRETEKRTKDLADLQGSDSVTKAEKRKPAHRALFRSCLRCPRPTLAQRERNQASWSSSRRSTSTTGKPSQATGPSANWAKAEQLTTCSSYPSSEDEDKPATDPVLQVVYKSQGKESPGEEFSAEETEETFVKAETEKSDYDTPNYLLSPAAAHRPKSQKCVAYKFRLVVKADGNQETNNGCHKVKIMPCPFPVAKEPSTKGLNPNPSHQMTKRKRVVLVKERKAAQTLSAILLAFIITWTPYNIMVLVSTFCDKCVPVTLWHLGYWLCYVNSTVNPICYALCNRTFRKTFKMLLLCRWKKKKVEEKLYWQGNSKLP

hM1 = target: T2, hM1 (Homo sapiens, UniProt P11229); test: as above; conditions: cloned receptor subtype; data not shown
T2 sequence (P11229 1-460): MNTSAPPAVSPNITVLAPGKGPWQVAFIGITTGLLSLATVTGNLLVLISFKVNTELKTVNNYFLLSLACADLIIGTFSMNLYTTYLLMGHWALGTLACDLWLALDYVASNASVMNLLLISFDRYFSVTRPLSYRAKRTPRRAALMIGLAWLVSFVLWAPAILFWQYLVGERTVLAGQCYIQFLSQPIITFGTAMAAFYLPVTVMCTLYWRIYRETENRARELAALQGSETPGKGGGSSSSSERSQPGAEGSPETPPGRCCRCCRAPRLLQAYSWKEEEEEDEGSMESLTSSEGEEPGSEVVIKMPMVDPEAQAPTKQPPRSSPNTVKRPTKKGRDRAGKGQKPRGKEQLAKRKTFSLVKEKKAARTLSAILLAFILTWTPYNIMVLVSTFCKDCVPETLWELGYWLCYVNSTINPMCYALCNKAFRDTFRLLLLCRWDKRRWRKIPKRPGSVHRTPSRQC

TG-3 [1] = test: Western blot of TG proteins in mouse scleral fibroblasts after muscarinic agents; type: cell-based; conditions: 0.01-10 μM for 5 days
TG-1 [2] = test: as above; type: cell-based; conditions: 0.01-10 μM for 5 days
TG-2 = TG-2 colorimetric microassay (transamidase activity) in lysate of treated mouse scleral fibroblasts; type: cell-based; conditions: murine scleral derived fibroblasts, 0.01-10 μM for 5 days
TG-1 [3] = test: Western blot of TG proteins in human scleral fibroblasts after muscarinic agents; type: cell-based; conditions: 0.01-10 μM for 5 days
TG-3 [4] = test: as above; type: cell-based; conditions: 0.01-10 μM for 5 days

Row | Compound | Kd (hM5) [nM] | Kd (hM1) [nM] | TG-3 protein level (TG-3 [1]) | TG-1 protein level (TG-1 [2]) | transamidase (cross-linking) activity of TG-2 (TG-2) | TG-1 protein level (TG-1 [3]) | TG-3 protein level (TG-3 [4])
1 | C[C@@H]1OC(=O)[C@H]2C[C@H]3CCCC[C@@H]3[C@@H](/C=C/[C@H]3CCC[C@H](C)N3C)[C@@H]12 [himbacine] | 296 | 83 |  |  |  |  | 
2 | CN1[C@@H]2CC[C@H]1C[C@@H](OC(=O)C(CO)c1ccccc1)C2 (stereo partly shown) [atropine] |  |  | increased | reduced | reduction | reduced | increased
